From the NIST ThermoML archive (doi:10.1021/je500083n)

Assay: xn = mol fraction of the nth substance listed
Conditions: Gas, Vibrating wire viscometry

C [methane] + CCC
x2 = 0.0548
Conditions	viscosity [mPa·s]
280.16 K, 610 kPa	0.01039
280.16 K, 1550 kPa	0.01051
280.17 K, 3150 kPa	0.01083
280.17 K, 4970 kPa	0.01143
280.18 K, 5880 kPa	0.01179
280.2 K, 6560 kPa	0.01211
280.21 K, 6970 kPa	0.0123
298.18 K, 870 kPa	0.01083
298.18 K, 1450 kPa	0.01096
298.19 K, 4110 kPa	0.01163
298.2 K, 2650 kPa	0.01124
298.2 K, 5430 kPa	0.01211
298.22 K, 6340 kPa	0.01244
298.22 K, 6700 kPa	0.01259

C [methane] + O=C=O
x1 = 0.57
Conditions	viscosity [mPa·s]
280.17 K, 6410 kPa	0.01457
280.2 K, 5490 kPa	0.01408
280.22 K, 4480 kPa	0.01364
280.24 K, 3500 kPa	0.01338
280.31 K, 2510 kPa	0.0131
280.32 K, 1510 kPa	0.01303
303.18 K, 5440 kPa	0.01477
303.18 K, 6330 kPa	0.01523
303.19 K, 3500 kPa	0.01411
303.19 K, 4500 kPa	0.0144
303.2 K, 1500 kPa	0.01381
303.2 K, 2500 kPa	0.01387
328.13 K, 6450 kPa	0.01573
328.14 K, 3490 kPa	0.01477
328.14 K, 4490 kPa	0.01504
328.14 K, 5500 kPa	0.01538
328.15 K, 2500 kPa	0.01453
328.16 K, 1510 kPa	0.01447
